# Tests used:
# Format in all cases: functional
# [1] = tested on: Staphylococcus aureus; assay: Antimicrobial activity against Vancomycin-resistant Staphylococcus aureus incubated for 20 hrs by broth dilution method
# [2] = tested on: Enterococcus faecium; assay: Antimicrobial activity against Vancomycin-resistant (Van A) Enterococcus faecium ATCC 51559 assessed as reduction in microbial growth
# [3] = tested on: Enterococcus faecalis; assay: Antimicrobial activity against Vancomycin - resistant Enterococcus faecalis assessed as inhibition of bacterial growth
# [4] = tested on: Staphylococcus aureus; assay: Antibacterial activity against Vancomycin-intermediate Staphylococcus aureus NRS1 assessed as bacterial growth inhibition
# [5] = Enterococcus faecium, ATCC 51559, read-out: MIC
Compound,MIC [2],"MIC [2, 5]",MIC [3],also measured
CN[C@@H](CC(C)C)C(=O)N[C@@H]1C(=O)N[C@H](CC(N)=O)C(=O)N[C@@H]2C(=O)N[C@@H]3C(=O)N[C@@H](C(=O)N[C@@H](C(=O)NCCCSSCCCNC(=O)[C@H]4NC(=O)[C@H]5NC(=O)[C@H](NC(=O)[C@@H]6NC(=O)[C@H](CC(N)=O)NC(=O)[C@H](NC(=O)[C@@H](CC(C)C)NC)[C@H](O)c7ccc(c(Cl)c7)Oc7cc6cc(c7O[C@@H]6O[C@H](CO)[C@@H](O)[C@H](O)[C@H]6O[C@H]6C[C@](C)(N)[C@H](O)[C@H](C)O6)Oc6ccc(cc6Cl)[C@H]5O)c5ccc(O)c(c5)-c5c(O)cc(O)cc54)c4cc(O)cc(O)c4-c4cc3ccc4O)[C@@H](O)c3ccc(c(Cl)c3)Oc3cc2cc(c3O[C@@H]2O[C@H](CO)[C@@H](O)[C@H](O)[C@H]2O[C@H]2C[C@](C)(N)[C@H](O)[C@H](C)O2)Oc2ccc(cc2Cl)[C@@H]1O,,,,MIC [1]: 15 µM
CCCCCCCCCC(=O)OC[C@H]1O[C@@H](Oc2c3cc4cc2Oc2ccc(cc2Cl)[C@@H](O)[C@@H](NC(=O)[C@@H](CC(C)C)NC)C(=O)N[C@@H](CC(N)=O)C(=O)N[C@H]4C(=O)N[C@H]2C(=O)N[C@H](C(=O)N[C@H](C(=O)O)c4ccccc4-c4cccc2c4)[C@H](O)c2ccc(c(Cl)c2)O3)[C@H](O[C@H]2C[C@](C)(N)[C@H](O)[C@H](C)O2)[C@@H](O)[C@@H]1O,1 µg/mL,,,
CN[C@H](CC(C)C)C(=O)N[C@H]1C(=O)N[C@@H](CC(N)=O)C(=O)N[C@H]2C(=O)N[C@H]3C(=O)N[C@H](C(=O)N[C@H](C(=O)O)c4ccccc4-c4cccc3c4)[C@H](O)c3ccc(c(Cl)c3)Oc3cc2cc(c3O[C@@H]2O[C@H](CO)[C@@H](O)[C@H](O)[C@H]2O[C@H]2C[C@](C)(NCc3ccc(OCCCN4C(=O)[C@@H]5[C@H](C4=O)[C@@H](C)C[C@H]5/C=C/c4ccccc4)cc3)[C@H](O)[C@H](C)O2)Oc2ccc(cc2Cl)[C@H]1O,2 µg/mL,31 µg/mL,,
CN[C@H](CC(C)C)C(=O)N[C@H]1C(=O)N[C@@H](CC(N)=O)C(=O)N[C@H]2C(=O)N[C@H]3C(=O)N[C@H](C(=O)N[C@H](C(=O)NCCCNCCCCCCCCNCCCNC(=O)[C@H]4NC(=O)[C@H]5NC(=O)[C@H](NC(=O)[C@@H]6NC(=O)[C@H](CC(N)=O)NC(=O)[C@H](NC(=O)[C@@H](CC(C)C)NC)[C@H](O)c7ccc(c(Cl)c7)Oc7cc6cc(c7O[C@@H]6O[C@H](CO)[C@@H](O)[C@H](O)[C@H]6O[C@H]6C[C@](C)(N)[C@H](O)[C@H](C)O6)Oc6ccc(cc6Cl)[C@H]5O)c5ccc(O)c(c5)-c5c(O)cc(O)cc54)c4cc(O)cc(O)c4-c4cc3ccc4O)[C@H](O)c3ccc(c(Cl)c3)Oc3cc2cc(c3O)Oc2ccc(cc2Cl)[C@H]1O,0.1 µM,48 µM,,
CC(=O)OCC1=C(C(=O)O)N2C(=O)[C@@H](NC(=O)CCC[C@@H](N)C(=O)O)[C@H]2SC1 [CEPHALOSPORIN C],,,< 0.5 µg/mL,MIC [1]: 1 µg/mL
CN[C@H](CC(C)C)C(=O)N[C@H]1C(=O)N[C@@H](CC(N)=O)C(=O)N[C@H]2C(=O)N[C@H]3C(=O)N[C@H](C(=O)N[C@H](C(=O)O)c4cc(OC)cc(OC)c4-c4cc3ccc4OC)[C@H](O)c3ccc(c(Cl)c3)Oc3cc2cc(c3OC)Oc2ccc(cc2Cl)[C@H]1O,1.6 µg/mL,,,
CN[C@H](CC(C)C)C(=O)N[C@H]1C(=O)N[C@@H](CC(N)=O)C(=O)N[C@H]2C(=O)N[C@H]3C(=O)N[C@H](C(=O)N[C@H](C(=O)O)c4cc(O)cc(O)c4-c4cc3ccc4O)[C@H](O)c3ccc(c(Cl)c3)Oc3cc2cc(c3O[C@@H]2O[C@H](CO)[C@@H](O)[C@H](O)[C@H]2O[C@H]2C[C@](C)(NCc3cccc(OCC/C=C\CCOc4cccc(CN[C@@]5(C)C[C@H](O[C@H]6[C@H](Oc7c8cc9cc7Oc7ccc(cc7Cl)[C@@H](O)[C@@H](NC(=O)[C@@H](CC(C)C)NC)C(=O)N[C@@H](CC(N)=O)C(=O)N[C@H]9C(=O)N[C@H]7C(=O)N[C@H](C(=O)N[C@H](C(=O)O)c9cc(O)cc(O)c9-c9cc7ccc9O)[C@H](O)c7ccc(c(Cl)c7)O8)O[C@H](CO)[C@@H](O)[C@@H]6O)O[C@@H](C)[C@H]5O)c4)c3)[C@H](O)[C@H](C)O2)Oc2ccc(cc2Cl)[C@H]1O,,,,MIC [4]: 1 µg/mL
CN[C@H](CC(C)C)C(=O)N[C@H]1C(=O)N[C@@H](CC(N)=O)C(=O)N[C@H]2C(=N)N[C@H]3C(=O)N[C@H](C(=O)N[C@H](C(=O)O)c4cc(O)cc(O)c4-c4cc3ccc4O)[C@H](O)c3ccc(c(Cl)c3)Oc3cc2cc(c3O[C@@H]2O[C@H](CO)[C@@H](O)[C@H](O)[C@H]2O[C@H]2C[C@](C)(N)[C@H](O)[C@H](C)O2)Oc2ccc(cc2Cl)[C@H]1O,,0.5 µg/mL,0.5 µg/mL,
CN[C@H](CC(C)C)C(=O)N[C@H]1C(=O)N[C@@H](CC(N)=O)C(=O)N[C@H]2C(=O)N[C@H]3C(=O)N[C@H](C(=O)N[C@H](C(=O)NCCCCCCNC(=O)[C@H]4NC(=O)[C@H]5NC(=O)[C@H](NC(=O)[C@@H]6NC(=O)[C@H](CC(N)=O)NC(=O)[C@H](NC(=O)[C@@H](CC(C)C)NC)[C@H](O)c7ccc(c(Cl)c7)Oc7cc6cc(c7O[C@@H]6O[C@H](CO)[C@@H](O)[C@H](O)[C@H]6O[C@H]6C[C@](C)(N)[C@H](O)[C@H](C)O6)Oc6ccc(cc6Cl)[C@H]5O)c5ccc(O)c(c5)-c5c(O)cc(O)cc54)c4cc(O)cc(O)c4-c4cc3ccc4O)[C@H](O)c3ccc(c(Cl)c3)Oc3cc2cc(c3O[C@@H]2O[C@H](CO)[C@@H](O)[C@H](O)[C@H]2O[C@H]2C[C@](C)(N)[C@H](O)[C@H](C)O2)Oc2ccc(cc2Cl)[C@H]1O,,,,MIC [1]: 32 µM
CN[C@H](CC(C)C)C(=O)N[C@H]1C(=O)N[C@@H](CC(N)=O)C(=O)N[C@H]2C(=N)N[C@H]3C(=O)N[C@H](C(=O)N[C@H](C(=O)O)c4cc(O)cc(O)c4-c4cc3ccc4O)[C@H](O)c3ccc(c(Cl)c3)Oc3cc2cc(c3O[C@@H]2O[C@H](CO)[C@@H](O)[C@H](O)[C@H]2O[C@H]2C[C@](C)(NCc3ccc(-c4ccc(Cl)cc4)cc3)[C@H](O)[C@H](C)O2)Oc2ccc(cc2Cl)[C@H]1O,0.06 µg/mL,0.005 µg/mL,0.005 µg/mL,
C=C1NC(=O)[C@H]([C@@H](C)CC)NC(=O)[C@@H](NC(=O)/C(=C/C)NC(=O)[C@@H](N)[C@@H](C)CC)CSC[C@@H](C(=O)N[C@H]2C(=O)N3CCC[C@H]3C(=O)NCC(=O)N[C@H](C(=O)N[C@@H](CCCCN)C(=O)NCCCn3cc(CCC(=O)NCCCOCCOCCOCCCNC(=O)[C@H]4NC(=O)[C@H]5NC(=O)[C@H](NC(=O)[C@@H]6NC(=O)[C@H](CC(N)=O)NC(=O)[C@H](NC(=O)[C@@H](CC(C)C)NC)[C@H](O)c7ccc(c(Cl)c7)Oc7cc6cc(c7O[C@@H]6O[C@H](CO)[C@@H](O)[C@H](O)[C@H]6O[C@H]6C[C@](C)(N)[C@H](O)[C@H](C)O6)Oc6ccc(cc6Cl)[C@H]5O)c5ccc(O)c(c5)-c5c(O)cc(O)cc54)nn3)CS[C@@H]2C)NC(=O)[C@H]([C@@H](C)CC)NC1=O,,,2.3 µM,
CCCCCCCCCC(=O)O[C@H]1[C@H](O)[C@@H](O[C@H]2C[C@](C)(N)[C@H](O)[C@H](C)O2)[C@H](Oc2c3cc4cc2Oc2ccc(cc2Cl)[C@@H](O)[C@@H](NC(=O)[C@@H](CC(C)C)NC)C(=O)N[C@@H](CC(N)=O)C(=O)N[C@H]4C(=O)N[C@H]2C(=O)N[C@H](C(=O)N[C@H](C(=O)O)c4ccccc4-c4cccc2c4)[C@H](O)c2ccc(c(Cl)c2)O3)O[C@@H]1CO,,16 µg/mL,,
CN[C@H]1C(=O)N[C@@H]2Cc3ccc(cc3)Oc3cc4cc(c3O[C@@H]3O[C@H](C(=O)O)[C@@H](O)[C@H](O)[C@H]3NC(=O)CCCCCCCCC(C)C)Oc3ccc(cc3Cl)[C@@H](O)[C@@H]3NC(=O)[C@H](NC(=O)[C@@H]4NC(=O)[C@@H](NC2=O)c2cc(cc(O)c2Cl)Oc2cc1ccc2O)c1ccc(O)c(c1)-c1c(O[C@H]2O[C@H](CO)[C@@H](O)[C@H](O)[C@@H]2O)cc(O)cc1[C@@H](C(=O)NCCCN(C)C)NC3=O [DALBAVANCIN],0.1 µg/mL,,,
CN[C@H](CC(C)C)C(=O)N[C@H]1C(=O)N[C@@H](CC(N)=O)C(=O)N[C@H]2C(=O)N[C@H]3C(=O)N[C@H](C(=O)N[C@H](C(=O)O)c4cc(O)cc(O)c4-c4cc3ccc4O)[C@H](O)c3ccc(c(Cl)c3)Oc3cc2cc(c3O[C@@H]2O[C@H](CO)[C@@H](O)[C@H](O)[C@H]2O[C@H]2C[C@](C)(N)[C@H](O)[C@H](C)O2)Oc2ccc(cc2/C=C/c2ccc(-c3ccccc3)cc2)[C@H]1O,2 µg/mL,,,
CCCCCCCCCCCCCC(=O)N[C@@H](CCCCN)C(=O)N[C@@H](CCCCN)C(=O)N[C@@H](CCCCN)C(=O)NC(CCCCNC(=O)[C@H]1NC(=O)[C@H]2NC(=O)[C@H](NC(=O)[C@@H]3NC(=O)[C@H](CC(N)=O)NC(=O)[C@H](NC(=O)[C@@H](CC(C)C)NC)[C@H](O)c4ccc(c(Cl)c4)Oc4cc3cc(c4O[C@@H]3O[C@H](CO)[C@@H](O)[C@H](O)[C@H]3O[C@H]3C[C@](C)(N)[C@H](O)[C@H](C)O3)Oc3ccc(cc3Cl)[C@H]2O)c2ccc(O)c(c2)-c2c(O)cc(O)cc21)C(=O)O (stereo partly specified),0.125 µg/mL,,,MIC [1]: 0.05 µg/mL; MIC [4]: 0.03 µg/mL
CN[C@H](CC(C)C)C(=O)N[C@H]1C(=O)N[C@@H](CC(N)=O)C(=O)N[C@H]2C(=S)N[C@H]3C(=O)N[C@H](C(=O)N[C@H](C(=O)O)c4cc(O)cc(O)c4-c4cc3ccc4O)[C@H](O)c3ccc(c(Cl)c3)Oc3cc2cc(c3O[C@@H]2O[C@H](CO)[C@@H](O)[C@H](O)[C@H]2O[C@H]2C[C@](C)(NCc3ccc(-c4ccc(Cl)cc4)cc3)[C@H](O)[C@H](C)O2)Oc2ccc(cc2Cl)[C@H]1O,2 µg/mL,4 µg/mL,2 µg/mL,
